Legend:
Type in all cases: in vivo
ducksalad [1] = assay: Test Example 2: herbicidal effects during the vegetation period under submerged conditions; details: treatment during the vegetation period under submerged conditions; dose 2.52 g/a
Procedure, shortened: (§1)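 Barnyardgrass, bulrush and ducksalad were co-sown in alluvial soil flooded to 4 cm and grown in a greenhouse at 25 to 30° C. At the 1- or 2-leaf stage, water-diluted emulsifiable concentrates went onto the water surface at set doses (g/a). Herbicidal effect was scored three weeks later on a graded scale.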

bulrush [2] = assay: as above; details: treatment during the vegetation period under submerged conditions; dose 2.52 g/a
Procedure, shortened: as §1

barnyardgrass [3] = assay: as above; details: treatment during the vegetation period under submerged conditions; dose 2.52 g/a
Procedure, shortened: as §1

common lambsquater [4] = assay: Test Example 4: herbicidal effect in foliage treatment; details: dose 3.2 g/a
Procedure, shortened: (§2)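 Foliar spray, post-emergence: 14-day-old greenhouse plants (25–30° C, diluvial soil) treated with water-diluted EC at set g/a doses; visual herbicidal score at 3 wk post-application.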

Italian ryegrass [5] = assay: as above; details: dose 3.2 g/a
Procedure, shortened: as §2

giant foxtail [6] = assay: as above; details: dose 3.2 g/a
Procedure, shortened: as §2

common ragweed [7] = assay: as above; details: dose 3.2 g/a
Procedure, shortened: as §2

velvetleaf [8] = assay: as above; details: dose 3.2 g/a
Procedure, shortened: as §2

large crabgrass [9] = assay: as above; details: dose 3.2 g/a
Procedure, shortened: as §2

redroot pigweed [10] = assay: as above; details: dose 3.2 g/a
Procedure, shortened: as §2

posumbu knotweed [11] = assay: as above; details: dose 3.2 g/a
Procedure, shortened: as §2

water foxtail [12] = assay: as above; details: dose 3.2 g/a
Procedure, shortened: as §2

beadstraw [13] = assay: as above; details: dose 3.2 g/a
Procedure, shortened: as §2

common chickweed [14] = assay: as above; details: dose 3.2 g/a
Procedure, shortened: as §2

barnyardgrass [15] = assay: as above; details: dose 3.2 g/a
Procedure, shortened: as §2

ducksalad [16] = assay: Test Example 1: herbicidal effects in preemergence treatment under submerged conditions; details: dose 2.52 g/a
Procedure, shortened: (§3)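 Scoring 0 (<5% mortality) to 5 (≥90%) was done three weeks after preemergence application to the water surface of submerged (4 cm) alluvial soil, doses given as g per are. Weeds were seeded and 2.5-leaf rice transplanted on the treatment day; greenhouse at 25–30 °C.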

bulrush [17] = assay: as above; details: dose 2.52 g/a
Procedure, shortened: as §3

barnyardgrass [18] = assay: as above; details: dose 2.52 g/a
Procedure, shortened: as §3

common lambsquater [19] = assay: Test Example 3: herbicidal effects in soil treatment; details: dose 3.2 g/a
Procedure, shortened: (§4)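 Seeds were sown in sterilized diluvial soil and covered with about 1.5 cm of soil. Compounds, formulated as emulsifiable concentrates and diluted with water, were sprayed evenly over the soil surface at set doses in g/a. Herbicidal effect was scored on a rating scale three weeks later.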

Italian ryegrass [20] = assay: as above; details: dose 3.2 g/a
Procedure, shortened: as §4

giant foxtail [21] = assay: as above; details: dose 3.2 g/a
Procedure, shortened: as §4

common ragweed [22] = assay: as above; details: dose 3.2 g/a
Procedure, shortened: as §4

velvetleaf [23] = assay: as above; details: dose 3.2 g/a
Procedure, shortened: as §4

large crabgrass [24] = assay: as above; details: dose 3.2 g/a
Procedure, shortened: as §4

redroot pigweed [25] = assay: as above; details: dose 3.2 g/a
Procedure, shortened: as §4

posumbu knotweed [26] = assay: as above; details: dose 3.2 g/a
Procedure, shortened: as §4

water foxtail [27] = assay: as above; details: dose 3.2 g/a
Procedure, shortened: as §4

beadstraw [28] = assay: as above; details: dose 3.2 g/a
Procedure, shortened: as §4

common chickweed [29] = assay: as above; details: dose 3.2 g/a
Procedure, shortened: as §4

barnyardgrass [30] = assay: as above; details: dose 3.2 g/a
Procedure, shortened: as §4

transplanted rice = assay: Test Example 1: preemergence treatment under submerged conditions, effect on crop; details: dose 2.52 g/a
Procedure, shortened: as §3

[31] = three weeks after the application

Structure (SMILES): O=C1CC2(CCCCC2)OCN1Cc1ccccc1NS(=O)(=O)C(F)(F)F [II-67]
- C: ducksalad, herbicidal effect (evaluation scale 0-5) (ducksalad [1]): 5 (mortality of 90% or above (nearly complete death))
- B: bulrush, herbicidal effect (evaluation scale 0-5) (bulrush [2]): 5 (mortality of 90% or above (nearly complete death))
- A: barnyardgrass, herbicidal effect (evaluation scale 0-5) (barnyardgrass [3]): 5 (mortality of 90% or above (nearly complete death))
- L: common lambsquater, herbicidal effect (common lambsquater [4]; three weeks after application): 4 (mortality of at least 70% and less than 90%)
- H: Italian ryegrass, herbicidal effect (Italian ryegrass [5]; three weeks after application): 2 (mortality of at least 20% and less than 40%)
- E: giant foxtail, herbicidal effect (giant foxtail [6]; three weeks after application): 5 (mortality of 90% or above (nearly complete death))
- J: common ragweed, herbicidal effect (common ragweed [7]; three weeks after application): 3 (mortality of at least 40% and less than 70%)
- I: velvetleaf, herbicidal effect (velvetleaf [8]; three weeks after application): 5 (mortality of 90% or above (nearly complete death))
- D: large crabgrass, herbicidal effect (large crabgrass [9]; three weeks after application): 5 (mortality of 90% or above (nearly complete death))
- K: redroot pigweed, herbicidal effect (redroot pigweed [10]; three weeks after application): 0 (mortality of less than 5% (almost ineffective))
- M: posumbu knotweed, herbicidal effect (posumbu knotweed [11]; three weeks after application): 3 (mortality of at least 40% and less than 70%)
- G: water foxtail, herbicidal effect (water foxtail [12]; three weeks after application): 5 (mortality of 90% or above (nearly complete death))
- O: beadstraw, herbicidal effect (beadstraw [13]; three weeks after application): 3 (mortality of at least 40% and less than 70%)
- N: common chickweed, herbicidal effect (common chickweed [14]; three weeks after application): 4 (mortality of at least 70% and less than 90%)
- A: barnyardgrass, herbicidal effect (barnyardgrass [15]; three weeks after application): 5 (mortality of 90% or above (nearly complete death))
- C: ducksalad, herbicidal effect (evaluation scale 0-5) (ducksalad [16]): 5 (mortality of 90% or above (nearly complete death))
- B: bulrush, herbicidal effect (evaluation scale 0-5) (bulrush [17]): 5 (mortality of 90% or above (nearly complete death))
- A: barnyardgrass, herbicidal effect (evaluation scale 0-5) (barnyardgrass [18]): 5 (mortality of 90% or above (nearly complete death))
- L: common lambsquater, herbicidal effect (evaluation scale 0-5) (common lambsquater [19]): 5 (mortality of 90% or above (nearly complete death))
- H: Italian ryegrass, herbicidal effect (evaluation scale 0-5) (Italian ryegrass [20]): 5 (mortality of 90% or above (nearly complete death))
- E: giant foxtail, herbicidal effect (evaluation scale 0-5) (giant foxtail [21]): 5 (mortality of 90% or above (nearly complete death))
- J: common ragweed, herbicidal effect (evaluation scale 0-5) (common ragweed [22]): 2 (mortality of at least 20% and less than 40%)
- I: velvetleaf, herbicidal effect (evaluation scale 0-5) (velvetleaf [23]): 5 (mortality of 90% or above (nearly complete death))
- D: large crabgrass, herbicidal effect (evaluation scale 0-5) (large crabgrass [24]): 5 (mortality of 90% or above (nearly complete death))
- K: redroot pigweed, herbicidal effect (evaluation scale 0-5) (redroot pigweed [25]): 3 (mortality of at least 40% and less than 70%)
- M: posumbu knotweed, herbicidal effect (evaluation scale 0-5) (posumbu knotweed [26]): 5 (mortality of 90% or above (nearly complete death))
- G: water foxtail, herbicidal effect (evaluation scale 0-5) (water foxtail [27]): 5 (mortality of 90% or above (nearly complete death))
- O: beadstraw, herbicidal effect (evaluation scale 0-5) (beadstraw [28]): 5 (mortality of 90% or above (nearly complete death))
- N: common chickweed, herbicidal effect (evaluation scale 0-5) (common chickweed [29]): 5 (mortality of 90% or above (nearly complete death))
- A: barnyardgrass, herbicidal effect (evaluation scale 0-5) (barnyardgrass [30]): 5 (mortality of 90% or above (nearly complete death))
- a: transplanted rice, effect on crop (evaluation scale 0-5) (transplanted rice): 0 (mortality of less than 5% (almost ineffective))

Structure (SMILES): CC1CON(Cc2ccccc2NS(=O)(=O)C(F)(F)F)C(=O)O1 (centres unmarked) [III-3]
- C: ducksalad, herbicidal effect (evaluation scale 0-5) (ducksalad [1]): 5 (mortality of 90% or above (nearly complete death))
- B: bulrush, herbicidal effect (evaluation scale 0-5) (bulrush [2]): 5 (mortality of 90% or above (nearly complete death))
- A: barnyardgrass, herbicidal effect (evaluation scale 0-5) (barnyardgrass [3]): 5 (mortality of 90% or above (nearly complete death))
- L: common lambsquater, herbicidal effect (common lambsquater [4]; [31]): 0 (mortality of less than 5% (almost ineffective))
- H: Italian ryegrass, herbicidal effect (Italian ryegrass [5]; [31]): 0 (mortality of less than 5% (almost ineffective))
- E: giant foxtail, herbicidal effect (giant foxtail [6]; [31]): 4 (mortality of at least 70% and less than 90%)
- J: common ragweed, herbicidal effect (common ragweed [7]; [31]): 4 (mortality of at least 70% and less than 90%)
- I: velvetleaf, herbicidal effect (velvetleaf [8]; [31]): 2 (mortality of at least 20% and less than 40%)
- D: large crabgrass, herbicidal effect (large crabgrass [9]; [31]): 4 (mortality of at least 70% and less than 90%)
- K: redroot pigweed, herbicidal effect (redroot pigweed [10]; [31]): 0 (mortality of less than 5% (almost ineffective))
- M: posumbu knotweed, herbicidal effect (posumbu knotweed [11]; [31]): 2 (mortality of at least 20% and less than 40%)
- G: water foxtail, herbicidal effect (water foxtail [12]; [31]): 5 (mortality of 90% or above (nearly complete death))
- O: beadstraw, herbicidal effect (beadstraw [13]; [31]): 4 (mortality of at least 70% and less than 90%)
- N: common chickweed, herbicidal effect (common chickweed [14]; [31]): 4 (mortality of at least 70% and less than 90%)
- A: barnyardgrass, herbicidal effect (barnyardgrass [15]; [31]): 5 (mortality of 90% or above (nearly complete death))
- C: ducksalad, herbicidal effect (evaluation scale 0-5) (ducksalad [16]): 5 (mortality of 90% or above (nearly complete death))
- B: bulrush, herbicidal effect (evaluation scale 0-5) (bulrush [17]): 5 (mortality of 90% or above (nearly complete death))
- A: barnyardgrass, herbicidal effect (evaluation scale 0-5) (barnyardgrass [18]): 4 (mortality of at least 70% and less than 90%)
- herbicidal effect, L: common lambsquater (common lambsquater [19]): 0 (mortality of less than 5% (almost ineffective))
- herbicidal effect, H: Italian ryegrass (Italian ryegrass [20]): 0 (mortality of less than 5% (almost ineffective))
- herbicidal effect, E: giant foxtail (giant foxtail [21]): 5 (mortality of 90% or above (nearly complete death))
- herbicidal effect, J: common ragweed (common ragweed [22]): 5 (mortality of 90% or above (nearly complete death))
- herbicidal effect, I: velvetleaf (velvetleaf [23]): 1 (mortality of at least 5% and less than 20%)
- herbicidal effect, D: large crabgrass (large crabgrass [24]): 5 (mortality of 90% or above (nearly complete death))
- herbicidal effect, K: redroot pigweed (redroot pigweed [25]): 0 (mortality of less than 5% (almost ineffective))
- herbicidal effect, M: posumbu knotweed (posumbu knotweed [26]): 5 (mortality of 90% or above (nearly complete death))
- herbicidal effect, G: water foxtail (water foxtail [27]): 5 (mortality of 90% or above (nearly complete death))
- herbicidal effect, O: beadstraw (beadstraw [28]): 0 (mortality of less than 5% (almost ineffective))
- herbicidal effect, N: common chickweed (common chickweed [29]): 4 (mortality of at least 70% and less than 90%)
- herbicidal effect, A: barnyardgrass (barnyardgrass [30]): 5 (mortality of 90% or above (nearly complete death))
- a: transplanted rice, effect on crop (evaluation scale 0-5) (transplanted rice): 0 (mortality of less than 5% (almost ineffective))
